Structures can show the parent of a compound that is named as a salt. Where two headings read alike, the source gives them in different places.
Experiments:
[1] = Solubility in water / aqueous solutions; assay type: physicochemical
[2] = Z-E isomerization half-life by UV/Vis spectrophotometry after 365 nm irradiation; assay type: physicochemical; conditions: for τ1/2 (DMSO), Z-E isomerization half-life: RT, after 365 nm 5 min; for τ1/2 (Aqueous Kolliphor ELP), Z-E isomerization half-life: aqueous 4% Kolliphor ELP solution
Protocol: As one of the main physicochemical properties of photopharmacological agents, the Z-E half-life was investigated, which determines the stability of the Z-isomer. The Z-E half-lifes were measured using UV/Vis spectrophotometry, converting the compound to the Z-isomer by irradiating with UV light and observing the change in absorption intensity due to reverse Z-E relaxation.
Z-E isomerization half-life was determined using UV/Vis spectroscopy. Solutions were prepared and kept in the dark at RT before the experiment. First, the spectrum in the dark was registered ( PSSdark) , which corresponds to the photostationary state (PSS) with E-isomer predominance. Then, the cuvette with the solution was irradiated with UV light (λ = 365 nm) for 5 min to give the PSS with Z-isomer predominance. The corresponding spectrum was registered ( PSS365nm) . During the subsequent isomerization, the kinetics of changes in the absorption value were recorded at the wavelength of the absorption maximum corresponding to the E-isomer ( λmax(E)) . Then, lnAt/A0 values were calculated using the Equation (1):(1) lnAt/A0=lnAbsPSS(dark)−Abstime/AbsPSS(dark)−AbsPSS(365nm), where AbsPSS(dark) , AbsPSS(365nm), and Abstime are absorbance values at λmax(E) in the dark at the beginning of the experiment, after UV light (λ = 365 nm) irradiation, and at different time points from 0 to 60 min, respectively. Then, a graph was plotted depending on lnAt/A0 values from time, the trend line was calculated, and a first-order rate constant (k) for the thermal back Z-E isomerization reaction was obtained as the slope of the trend line.
For a first-order reaction, half-life t1/2 can be calculated using the Equation (2):(2) t1/2=ln2/k

[3] = In vitro cytotoxicity, MTT test, 24 h incubation; assay type: cell-based, human; conditions: human, dermal fibroblast cells (DF2), DF2 fibroblasts
Protocol: The culture of dermal fibroblast cells (DF2) was obtained from the collection of the Institute of Cytology of the Russian Academy of Sciences (Saint Petersburg, Russia). The cells were cultured in plastic vials with a cell growth surface of 25 cm^2 (Costar, Richmond, VA, USA) on DMEM/F12 medium with the addition of L-glutamine and 10% fetal bovine serum (FBS) (PanEco, Moscow, Russia). The cells were cultured at 37 °C in a humid atmosphere with a content of 5% CO2 (Binder CO2 incubator, Germany). Cell lines from 3 to 7 passages were used in the work. To conduct experiments to evaluate the cytotoxicity of compounds, cells were sieved into 96-well culture plates at a concentration of 10^5 cells per ml, incubated at 37 °C (humidified atmosphere, 5% carbon dioxide) for 24–28 h. Further, 50 µL of the studied substances was added. The cells were incubated with the compounds for 24 h at 37 °C. Next, the cytotoxic effect of the substances was evaluated by a colorimetric method using an MTT test and visually, using an inverted microscope. The criterion for evaluating the specific activity of the compound was the value of IC50, the concentration at which 50% death of culture cells was noted.

rabbit eye cornea = tested on: rabbit eye cornea; parameters: method as in PMID 35628162; conditions: 2% solution of lidocaine, obtained previously, cited from earlier work; for Local Anesthetic Activity (Regnier Index, Min—13, Max—1300) Under Irradiation (λ = 365 nm): UV light irradiation

For `c1csc(/N=N/c2ccc(OCCN3CCOCC3)cc2)n1` [Compound 25a, 2-(4-(2-(N-morpholino)-ethoxy)-phenylazo)-thiazole hydrochloride], the solubility ([1]; water) was > 100 mg/mL, the “τ1/2 (DMSO), Z-E isomerization half-life” value [2] was 12 min and the “τ1/2 (Aqueous Kolliphor ELP), Z-E isomerization half-life” value [2] was 13 min. It also gave an IC50 at 24 h [3] of 200 µM.
For `CCN(CC)CC(=O)Nc1c(C)cccc1C` [Lidocaine 2%, Lidocaine], the IC50 at 24 h [3] is listed as > 5000 µM, the “Local Anesthetic Activity (Regnier Index, Min—13, Max—1300) Under Irradiation (λ = 365 nm)” value (rabbit eye cornea; listed as lidocaine) is listed as 469 ± 37 and the “Local Anesthetic Activity (Regnier Index, Min—13, Max—1300) Under Irradiation (λ = 365 nm)” value (rabbit eye cornea) is listed as 469 ± 37 (n = 8). For the same compound, the “Local Anesthetic Activity (Regnier Index, Min—13, Max—1300) In the Dark” value (rabbit eye cornea; listed as lidocaine) was 451 ± 40 and the “Local Anesthetic Activity (Regnier Index, Min—13, Max—1300) In the Dark” value (rabbit eye cornea) was 451 ± 40 (n = 8).
For `O=C(CN1CCOCC1)Nc1ccc(/N=N/c2ccccc2)cc1` [Compound 2], the “Solubility in aqueous solutions (in words)” value ([1]; seen in the cytotoxicity test) was “poor solubility in aqueous solutions at concentrations above 200 µM”, the “τ1/2 (DMSO), Z-E isomerization half-life” value [2] was 1830 min and the “τ1/2 (Aqueous Kolliphor ELP), Z-E isomerization half-life” value [2] was 31 min. For the same compound, the IC50 at 24 h [3] was > 200 µM.

Source: publication PMC11989239, “Structure–Property Relationships in Novel Series of Photoswitchable Local Anesthetic Ethercaine Derivatives: Emphasis on Biological and Photophysical Properties” (International Journal of Molecular Sciences, 2025)
